Consider eleven molecules from patent publication US9012431B2, “Boron-containing small molecules as anti-inflammatory agents” (Anacor Pharmaceuticals, Inc., priority 2008, dated 2015).

Broadly, the inhibition in vivo is the change of the read-out against control, counted positive when it falls. A low value points to little suppression. For orientation: IC50 means the concentration at which inhibition is half-maximal.

One test concerns BALB/c male mice. Kind of test: Oxazolone Induced Mouse Ear Edema Model. Type of test: in vivo. To be noted: for inhibition in vivo at 0.2 mg: 0.2 mg/ear × 2 topical; for inhibition in vivo at 1 mg: 1 mg/ear × 2 topical. The protocol:
2. In Vivo Anti-Inflammation Activity in Oxazolone Induced Mouse Ear Edema Model
Groups of 5 BALB/c male mice weighing 23±2 g were used. The preshaved abdomens of test animals were sensitized by application of 100 μl, of 1.5% oxazolone solution dissolved in acetone. Seven days after the initial sensitization, test substances, as well as vehicle (acetone:ethanol/1:1, 20 μL/ear) were each administered topically to the anterior and posterior surfaces of the right ear 30 minutes before, and 15 minutes after, challenge by a second application of oxazolone (1% in acetone, […]) via topical route. As a positive control, indomethacin (0.3 mg/ear×2) was administered topically using the same treatment regime as for the test compounds. Twenty-four hours after the second application of oxazolone, the ear thickness of each mouse was measured with a Dyer model micrometer gauge. A 30 percent or more inhibition in ear swelling relative to the vehicle control was considered significant and indicated possible anti-inflammatory activity.

The next test has as its system IL-5. As to the kind of experiment: Cytokine assay, IL-5 release from PBMC. Type of test: cell-based. To be noted: human PBMC, 20 ug/mL PHA, supernatant at 48 hours. The essentials: (§1)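 Inhibition of cytokine release was assessed in thawed human PBMC cultured in RPMI 1640 plus 10% FBS, with compound tested at four concentrations from 0.01 to 10 μM.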
Test [1] has as its system CD-1 (Crl.) derived male mice. Kind of test: Phorbol Ester Induced Mouse Ear Edema Model. The format is in vivo. The settings on record: topical, 6 h; for inhibition in vivo at 0.2 mg: 0.2 mg/ear × 2 topical; for inhibition in vivo at 1 mg: 1 mg/ear × 2 topical; for inhibition in vivo at 3 mg: 3 mg/ear × 2 topical; for inhibition in vivo at 0.02 mg: 0.02 mg/ear × 2 topical; for inhibition in vivo at 0.067 mg: 0.067 mg/ear × 2 topical. The protocol: 1. In Vivo Anti-Inflammation Activity in Phorbol Ester Induced Mouse Ear Edema Model
[…] Dexamethasone (1 mg/ear×2) used as the positive control was administered topically to test animals using the same application schedule. Ear swelling was then measured by a Dyer model micrometer gauge at 6 hours after PMA application as an index of inflammation. Percent inhibition was calculated according to the formula: [(Ic−It)/Ic]×100%, where Ic and It refer to increase of ear thickness (mm) in control and treated mice, respectively.

For a further test, the system named is IL-10. As to the kind of experiment: Cytokine assay, IL-10 release from PBMC. The format is cell-based. To be noted: human PBMC, 20 ug/mL PHA, supernatant at 48 hours. The essentials:
as §1

In another test the test system is TNF-α. As to the kind of experiment: Cytokine assay, TNF-α release from PBMC. To be noted: Homo sapiens, PBMC, 24 h, 1 μg/mL LPS, supernatant at 24 hours. Type of test: cell-based. The method in brief: as §1
Another test relates to IL-2. Kind of test: Cytokine assay, IL-2 release from PBMC. Type of test: cell-based. To be noted: human PBMC, 20 ug/mL PHA, supernatant at 24 hours. The essentials: as §1
The subject of the next test is IFN-γ. Kind of test: Cytokine assay, IFN-γ release from PBMC. Type of test: cell-based. The settings on record: human PBMC, 20 ug/mL PHA, supernatant at 24 hours. The essentials:
as §1

The test system of test [2] is T1, PDE4 partially purified from human U-937 myeloid leukemia cells.
T1 construct: PDE4 partially purified from human U-937 myeloid leukemia cells was used
As to the kind of experiment: PDE4 Assay (enzyme from U-937 cells, [3H]cAMP). Type of test: biochemical. To be noted: PDE4 from U-937 cells, Tris buffer pH 7.5, 20 minutes at 25° C.

Setting [3] is: Acetone:Ethanol/1:1, ear thickness 24 hours after second oxazolone application.
[4] abbreviates: Acetone:Ethanol/1:1, ear swelling 6 hours after PMA.
Where [5] appears, read: 95% Ethanol, ear swelling 6 hours after PMA.
The mark [6] stands for this setting: […] × 2 topical, 95% Ethanol, ear swelling 6 hours after PMA.

For `COC(=O)c1cc(Oc2ccc3c(c2)COB3O)ccc1C#N` [D6, 5-(4-Cyano-3-methoxycarbonylphenoxy)-1,3-dihydro-1-hydroxy-2,1-benzoxaborole], the inhibition in vivo at 0.2 mg with BALB/c male mice (setting [3]) was under 20%; in test [1] (setting [4]) it was under 30%. The inhibition in vivo at 1 mg was under 20% in the test on BALB/c male mice (setting [3]) and 30 to 60% in test [1] (setting [4]). Also, the IC50 in the test on IL-5 was 4000 to 10000 nM; in the test on IL-10, 4000 to 10000 nM; with TNF-α it was under 1000 nM; in the test on IL-2 it was under 1000 nM; in the test on IFN-γ, under 1000 nM; in test [2], under 1000 nM.
`COC(=O)c1cc(Oc2ccc3c(c2)COB3O)ccc1C(N)=O` [D7, 5-(4-Carbamoyl-3-methoxycarbonylphenoxy)-1,3-dihydro-1-hydroxy-2,1-benzoxaborole]: the inhibition in vivo at 1 mg/kg in the test on BALB/c male mice (1 mg/kg × 2 topical, Acetone:Ethanol/1:1, ear thickness 24 hours after second oxazolone application) is under 20%; in test [1] (1 mg/kg × 2 topical, Acetone:Ethanol/1:1, ear swelling 6 hours after PMA) it was under 30%. Moreover, the IC50 (in the test with IL-5; in the test on IL-10; with TNF-α; in the test with IL-2; with IFN-γ; in test [2]) was under 1000 nM in each case.
In the case of `COc1cc(Oc2ccc3c(c2)COB3O)ccc1C#N` [D12, 5-(4-Cyano-3-methoxyphenoxy)-1,3-dihydro-1-hydroxy-2,1-benzoxaborole], the inhibition in vivo at 0.2 mg was under 20% in the test with BALB/c male mice (setting [3]) and under 30% in test [1] (setting [4]). In addition, the inhibition in vivo at 1 mg fell in the range of 30 to 40% in the test on BALB/c male mice (setting [3]) and 30 to 60% in test [1] (setting [4]). In addition, the IC50 with IL-5 was 1000 to 4000 nM; in the test on IL-10 it was under 1000 nM; with TNF-α it was under 1000 nM; in the test on IL-2, under 1000 nM; in the test on IFN-γ, under 1000 nM; in test [2], under 1000 nM.
Regarding `N#Cc1ccc(Oc2ccc3c(c2)COB3O)cc1OC1CCCC1` [D37, 2-Cyclopentyloxy-4-(1-hydroxy-1,3-dihydro-benzo[c][1,2]oxaborol-5-yloxy)-benzonitrile], the inhibition in vivo at 1 mg with BALB/c male mice (setting [3]) is under 20%; in test [1] (setting [4]) it was 60 to 90%. Further, the IC50 (with IL-5; with IL-10; with TNF-α; with IL-2; in the test with IFN-γ; in test [2]) was under 1000 nM in each case. This molecule returned an inhibition in vivo at 3 mg in test [1] (setting [5]) of 60 to 90%.
Regarding `COc1nc(Oc2ccc3c(c2)COB3O)ccc1C#N` [D46, 6-(1-hydroxy-1,3-dihydrobenzo[c][1,2]oxaborol-5-yloxy)-2-methoxynicotinonitrile], the inhibition in vivo at 1 mg is under 20% in the test on BALB/c male mice (setting [3]) and 60 to 90% in test [1] (setting [4]). In addition, the IC50 (in the test on IL-5; with IL-10; in the test on TNF-α; in the test on IL-2; in the test on IFN-γ; in test [2]) was under 1000 nM each time. This molecule also returned an inhibition in vivo at 0.05 mg in test [1] (0.05 mg/ear × 2 topical, 95% Ethanol, ear swelling 6 hours after PMA) of under 30%. In test [1] (0.1 mg/ear × 2 topical, Acetone:Ethanol/1:1, ear swelling 6 hours after PMA), this molecule yielded an inhibition in vivo at 0.1 mg of under 30%. In addition, in test [1] (0.17 mg/ear × 2 topical, 95% Ethanol, ear swelling 6 hours after PMA), the inhibition in vivo at 0.17 mg is under 30%. The molecule further had an inhibition in vivo at 0.2 mg in test [1] (setting [4]) of under 30%. Also, the inhibition in vivo at 0.5 mg in test [1] (0.5 mg/ear × 2 topical, 95% Ethanol, ear swelling 6 hours after PMA) is under 30%. The molecule also came in with an inhibition in vivo at 3 mg in test [1] (setting [5]) of 60 to 90%.
Turning to `CC(C)OC(=O)c1ccc(Oc2ccc3c(c2)COB3O)nc1` [D67, Isopropyl 6-(1-hydroxy-1,3-dihydrobenzo[c][1,2]oxaborol-5-yloxy)nicotinate], the inhibition in vivo at 1 mg was under 20% with BALB/c male mice (setting [3]) and 60 to 90% in test [1] (setting [4]). The IC50 (with IL-5; in the test with IL-10; in the test with TNF-α; in the test with IL-2; in the test with IFN-γ; in test [2]) was under 1000 nM throughout.
For the molecule `CCCCOC(=O)c1ccc(Oc2ccc3c(c2)COB3O)nc1` [D68, n-Butyl 6-(1-hydroxy-1,3-dihydrobenzo[c][1,2]oxaborol-5-yloxy)nicotinate], the inhibition in vivo at 1 mg was under 20% in the test on BALB/c male mice (setting [3]) and 30 to 60% in test [1] (setting [4]). The half-maximal inhibitory concentration (IC50) in the test on IL-5 was 1000 to 4000 nM; in the test on IL-10, 1000 to 4000 nM; in the test on TNF-α, under 1000 nM; in the test with IL-2 it was under 1000 nM; in the test on IFN-γ, 4000 to 10000 nM; in test [2] it was under 1000 nM.
`N#Cc1ccc(Oc2ccc3c(c2)COB3O)nc1N1CCCC1` [D97, 6-(1-Hydroxy-1,3-dihydro-benzo[c][1,2]oxaborol-5-yloxy)-2-pyrrolidin-1-yl-nicotinonitrile]: the inhibition in vivo at 0.56 mg in the test with BALB/c male mice (0.56 mg/ear × 2 topical, 95% Ethanol, ear thickness 24 hours after second oxazolone application) was under 20%; in test [1] (setting [6]), 30 to 60%. Further, the IC50 (with IL-5; in the test on IL-10; with TNF-α; in the test with IL-2; in the test with IFN-γ; in test [2]) was under 1000 nM throughout. For the same molecule, the inhibition in vivo at 0.19 mg in test [1] (0.19 mg/ear × 2 topical, 95% Ethanol, ear swelling 6 hours after PMA) is under 30%. In test [1] (setting [6]), this molecule showed an inhibition in vivo at 0.056 mg of under 30%.
For `N#Cc1ccc(Oc2ccc3c(c2)COB3O)nc1OCCO` [D99, 6-(1-Hydroxy-1,3-dihydro-benzo[c][1,2]oxaborol-5-yloxy)-2-(2-hydroxy-ethoxy)-nicotinonitrile], the inhibition in vivo at 0.02 mg is under 20% in the test with BALB/c male mice (0.02 mg/ear × 2 topical, 95% Ethanol, ear thickness 24 hours after second oxazolone application) and under 30% in test [1] (setting [5]). Besides, the inhibition in vivo at 1 mg in the test with BALB/c male mice (setting [3]) is under 20%. Also, the IC50 (in the test on IL-5; in the test with IL-10; in the test on TNF-α; in the test with IL-2; in the test on IFN-γ; in test [2]) was under 1000 nM throughout. In addition, the inhibition in vivo at 0.067 mg in test [1] (setting [5]) was under 30%. Further, the inhibition in vivo at 0.2 mg in test [1] (setting [5]) is under 30%. For the same molecule, in test [1] (setting [5]), the inhibition in vivo at 3 mg lay in the range of 60 to 90%.
Regarding `N#Cc1ccc(Oc2ccc3c(c2)COB3O)nc1N1CCOCC1` [D102, 6-(1-Hydroxy-1,3-dihydro-benzo[c][1,2]oxaborol-5-yloxy)-2-morpholin-4-yl-nicotinonitrile], the results for the inhibition in vivo at 1 mg (in the test with BALB/c male mice (setting [3]); in test [1] (setting [5])) were under 20% and 30 to 60%, respectively. For the same molecule, the IC50 with IL-5 is under 1000 nM; in the test with IL-10 it was 1000 to 4000 nM; in the test with TNF-α, under 1000 nM; in the test with IL-2 it was under 1000 nM; with IFN-γ it was under 1000 nM; in test [2], under 1000 nM. This molecule had an inhibition in vivo at 0.02 mg in test [1] (setting [5]) of under 30%. Besides, in test [1] (setting [5]), the inhibition in vivo at 0.067 mg was under 30%. Also, the inhibition in vivo at 3 mg in test [1] (setting [5]) is 30 to 60%.
In the case of `CCOc1nc(Oc2ccc3c(c2)COB3O)ccc1C#N` [D107, 2-Ethoxy-6-(1-hydroxy-1,3-dihydro-benzo[c][1,2]oxaborol-5-yloxy)-nicotinonitrile], the inhibition in vivo at 2.4 mg is under 20% with BALB/c male mice (2.4 mg/ear × 2 topical, 95% Ethanol, ear thickness 24 hours after second oxazolone application) and 60 to 90% in test [1] (2.4 mg/ear × 2 topical, 95% Ethanol, ear swelling 6 hours after PMA). Moreover, the IC50 (in the test with IL-5; with IL-10; in the test with TNF-α; with IL-2; in the test on IFN-γ; in test [2]) was under 1000 nM throughout. Besides, the inhibition in vivo at 0.02 mg in test [1] (setting [5]) is under 30%. Further, the inhibition in vivo at 0.06 mg in test [1] (0.06 mg/ear × 2 topical, 95% Ethanol, ear swelling 6 hours after PMA) is under 30%. Also, the inhibition in vivo at 0.067 mg in test [1] (setting [5]) lay within 30 to 60%. The molecule also came in with an inhibition in vivo at 0.2 mg in test [1] (setting [5]) of 60 to 90%. The inhibition in vivo at 0.24 mg in test [1] (0.24 mg/ear × 2 topical, 95% Ethanol, ear swelling 6 hours after PMA) lay in the range of 30 to 60%. In test [1] (0.8 mg/ear × 2 topical, 95% Ethanol, ear swelling 6 hours after PMA), the inhibition in vivo at 0.8 mg was 60 to 90%.
